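Cells were grown in 96-well plates and exposed to each compound for 48 hours at five concentrations; endpoints were interpolated linearly between bracketing concentrations, or set to the highest concentration if not reached. Here, GI50 denotes the concentration required for 50% inhibition of growth. TGI marks complete inhibition of growth.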
Key:
Assay in all cases: inhibition of tumour cell growth, NCI panel, 48 h
786-0 renal = tested on: 786-0 renal
A549 NSCLC = tested on: A549 NSCLC
ACHN renal = tested on: ACHN renal
BT-549 breast = tested on: BT-549 breast
CAKI-1 renal = tested on: CAKI-1 renal
CCRF-CEM leukemia = tested on: CCRF-CEM leukemia
COLO 205 colon = tested on: COLO 205 colon
DU-145 prostate = tested on: DU-145 prostate
EKVX NSCLC = tested on: EKVX NSCLC
HCC-2998 colon = tested on: HCC-2998 colon
HCT-116 colon = tested on: HCT-116 colon
HCT-15 colon = tested on: HCT-15 colon
HL-60(TB) leukemia = tested on: HL-60(TB) leukemia
HOP-62 NSCLC = tested on: HOP-62 NSCLC
HOP-92 NSCLC = tested on: HOP-92 NSCLC
HS 578T breast = tested on: HS 578T breast
HT29 colon = tested on: HT29 colon
IGROV1 ovarian = tested on: IGROV1 ovarian
K-562 leukemia = tested on: K-562 leukemia
KM12 colon = tested on: KM12 colon
LOX IMVI melanoma = tested on: LOX IMVI melanoma
M14 melanoma = tested on: M14 melanoma
MALME-3M melanoma = tested on: MALME-3M melanoma
MCF7 breast = tested on: MCF7 breast
MDA-MB-231 breast = tested on: MDA-MB-231 breast
MDA-MB-435 = tested on: MDA-MB-435
MOLT-4 leukemia = tested on: MOLT-4 leukemia
NCI-H226 lung = tested on: NCI-H226 lung
NCI-H23 lung = tested on: NCI-H23 lung
NCI-H460 lung = tested on: NCI-H460 lung
NCI-H522 lung = tested on: NCI-H522 lung
NCI/ADR-RES ovarian = tested on: NCI/ADR-RES ovarian
OVCAR-3 ovarian = tested on: OVCAR-3 ovarian
OVCAR-4 ovarian = tested on: OVCAR-4 ovarian
OVCAR-5 ovarian = tested on: OVCAR-5 ovarian
OVCAR-8 ovarian = tested on: OVCAR-8 ovarian
PC-3 prostate = tested on: PC-3 prostate
RPMI-8226 leukemia = tested on: RPMI-8226 leukemia
RXF 393 renal = tested on: RXF 393 renal
SF-268 CNS = tested on: SF-268 CNS
SF-295 CNS = tested on: SF-295 CNS
SF-539 CNS = tested on: SF-539 CNS
SK-MEL-2 melanoma = tested on: SK-MEL-2 melanoma
SK-MEL-28 melanoma = tested on: SK-MEL-28 melanoma
SK-MEL-5 melanoma = tested on: SK-MEL-5 melanoma
SK-OV-3 ovarian = tested on: SK-OV-3 ovarian
SN12C renal = tested on: SN12C renal
SNB-19 CNS = tested on: SNB-19 CNS
SNB-75 CNS = tested on: SNB-75 CNS
SR leukemia = tested on: SR leukemia
SW-620 colon = tested on: SW-620 colon
T-47D breast = tested on: T-47D breast
TK-10 renal = tested on: TK-10 renal
U251 CNS = tested on: U251 CNS
UACC-257 melanoma = tested on: UACC-257 melanoma
UACC-62 melanoma = tested on: UACC-62 melanoma
UO-31 renal = tested on: UO-31 renal

CC(C)=CCc1c2c(c(O)c3c1O[C@]14C(=C[C@@H]5C[C@H]1C(C)(C)O[C@@]4(C/C=C(/C)C(=O)O)C5=O)C3=O)C=CC(C)(C)O2 was tested, and the GI50 (786-0 renal) was 4.27 µM, the TGI (786-0 renal) was 16.4 µM and the GI50 (A549 NSCLC) was 20.9 µM. It also gave a TGI (A549 NSCLC) of 45.6 µM, a GI50 (ACHN renal) of 12.2 µM and a TGI (ACHN renal) of 25.7 µM. It also gave a GI50 (BT-549 breast) of 14.4 µM, a TGI (BT-549 breast) of 29.1 µM and a GI50 (CAKI-1 renal) of 16.6 µM. For the same compound, the TGI (CAKI-1 renal) was 32.1 µM, the GI50 (CCRF-CEM leukemia) was 0.987 µM and the TGI (CCRF-CEM leukemia) was 23.4 µM. The GI50 (COLO 205 colon) was 17 µM, the TGI (COLO 205 colon) was 37.9 µM and the GI50 (DU-145 prostate) was 15.6 µM. The TGI (DU-145 prostate) was 29 µM, the GI50 (EKVX NSCLC) was 17.2 µM and the TGI (EKVX NSCLC) was 41.4 µM. For the same compound, the GI50 (HCC-2998 colon) was 18.5 µM, the TGI (HCC-2998 colon) was 35.9 µM and the GI50 (HCT-116 colon) was 11.4 µM. For the same compound, the TGI (HCT-116 colon) was 24.2 µM, the GI50 (HCT-15 colon) was 6.65 µM and the TGI (HCT-15 colon) was 33.8 µM. For the same compound, the GI50 (HL-60(TB) leukemia) was 12 µM, the TGI (HL-60(TB) leukemia) was 43.2 µM and the GI50 (HOP-62 NSCLC) was 15.4 µM. The TGI (HOP-62 NSCLC) was 31.5 µM, the GI50 (HOP-92 NSCLC) was 11.7 µM and the TGI (HOP-92 NSCLC) was 26.7 µM. The GI50 (HS 578T breast) was 17.3 µM, the TGI (HS 578T breast) was 58.9 µM and the GI50 (HT29 colon) was 12.9 µM. For the same compound, the TGI (HT29 colon) was 32.6 µM, the GI50 (IGROV1 ovarian) was 4.64 µM and the TGI (IGROV1 ovarian) was 17.7 µM. It also gave a GI50 (K-562 leukemia) of 6.43 µM, a TGI (K-562 leukemia) greater than 100 µM and a GI50 (KM12 colon) of 16.7 µM. It also gave a TGI (KM12 colon) of 33.5 µM, a GI50 (LOX IMVI melanoma) of 3.51 µM and a TGI (LOX IMVI melanoma) of 14.4 µM. The GI50 (M14 melanoma) was 12.8 µM, the TGI (M14 melanoma) was 29.5 µM and the GI50 (MALME-3M melanoma) was 13.1 µM. For the same compound, the TGI (MALME-3M melanoma) was 27.8 µM, the GI50 (MCF7 breast) was 5.59 µM and the TGI (MCF7 breast) was 42.4 µM. The GI50 (MDA-MB-231 breast) was 13.2 µM, the TGI (MDA-MB-231 breast) was 33.7 µM and the GI50 (MDA-MB-435) was 14.3 µM. The TGI (MDA-MB-435) was 29.5 µM, the GI50 (MOLT-4 leukemia) was 14.3 µM and the TGI (MOLT-4 leukemia) was 63 µM. The GI50 (NCI-H226 lung) was 21.7 µM, the TGI (NCI-H226 lung) was 50.2 µM and the GI50 (NCI-H23 lung) was 19.6 µM. The TGI (NCI-H23 lung) was 49.4 µM, the GI50 (NCI-H460 lung) was 15.8 µM and the TGI (NCI-H460 lung) was 32.1 µM. For the same compound, the GI50 (NCI-H522 lung) was 16 µM, the TGI (NCI-H522 lung) was 30.3 µM and the GI50 (NCI/ADR-RES ovarian) was 21.3 µM. For the same compound, the TGI (NCI/ADR-RES ovarian) was 75.3 µM, the GI50 (OVCAR-3 ovarian) was 10.2 µM and the TGI (OVCAR-3 ovarian) was 22 µM. It also gave a GI50 (OVCAR-4 ovarian) of 15.6 µM, a TGI (OVCAR-4 ovarian) of 36.8 µM and a GI50 (OVCAR-5 ovarian) of 17.6 µM. For the same compound, the TGI (OVCAR-5 ovarian) was 36.3 µM, the GI50 (OVCAR-8 ovarian) was 12.7 µM and the TGI (OVCAR-8 ovarian) was 33.6 µM. For the same compound, the GI50 (PC-3 prostate) was 14 µM, the TGI (PC-3 prostate) was 31.1 µM and the GI50 (RPMI-8226 leukemia) was 3.19 µM. The TGI (RPMI-8226 leukemia) was 13.9 µM, the GI50 (RXF 393 renal) was 12.6 µM and the TGI (RXF 393 renal) was 28.2 µM. The GI50 (SF-268 CNS) was 15.4 µM, the TGI (SF-268 CNS) was 31.4 µM and the GI50 (SF-295 CNS) was 17.7 µM. For the same compound, the TGI (SF-295 CNS) was 36.5 µM, the GI50 (SF-539 CNS) was 16.5 µM and the TGI (SF-539 CNS) was 35.1 µM. For the same compound, the GI50 (SK-MEL-2 melanoma) was 18.1 µM, the TGI (SK-MEL-2 melanoma) was 38.5 µM and the GI50 (SK-MEL-28 melanoma) was 15 µM. The TGI (SK-MEL-28 melanoma) was 30.1 µM, the GI50 (SK-MEL-5 melanoma) was 16.4 µM and the TGI (SK-MEL-5 melanoma) was 30.7 µM. For the same compound, the GI50 (SK-OV-3 ovarian) was 24.7 µM, the TGI (SK-OV-3 ovarian) was 51.3 µM and the GI50 (SN12C renal) was 17.5 µM. The TGI (SN12C renal) was 46.3 µM, the GI50 (SNB-19 CNS) was 17.2 µM and the TGI (SNB-19 CNS) was 33.6 µM. The GI50 (SNB-75 CNS) was 13.9 µM, the TGI (SNB-75 CNS) was 32.4 µM and the GI50 (SR leukemia) was 3.13 µM. It also gave a TGI (SR leukemia) greater than 100 µM, a GI50 (SW-620 colon) of 4.06 µM and a TGI (SW-620 colon) of 17.4 µM. The GI50 (T-47D breast) was 10 µM, the TGI (T-47D breast) was 31.1 µM and the GI50 (TK-10 renal) was 18 µM. The TGI (TK-10 renal) was 32.3 µM, the GI50 (U251 CNS) was 10.4 µM and the TGI (U251 CNS) was 22.6 µM. For the same compound, the GI50 (UACC-257 melanoma) was 12.7 µM, the TGI (UACC-257 melanoma) was 28 µM and the GI50 (UACC-62 melanoma) was 15.3 µM. The TGI (UACC-62 melanoma) was 32.2 µM, the GI50 (UO-31 renal) was 9.78 µM and the TGI (UO-31 renal) was 23.1 µM.

From PubChem BioAssay (NCI)
